Test results published in ChEMBL document CHEMBL1146879, “Novel benzimidazole-based MCH R1 antagonists” (Bioorg Med Chem Lett, 2006).

Experiments:
[1] = target: Melanin-concentrating hormone receptor 1 (Homo sapiens, UniProt Q99705); test: Antagonist activity against MCH1R expressed in CHO cells assessed as inhibition of MCH-induced EC80 […] response by luciferase reporter gene assay; assay type: functional, cell-based
[2] = Bioavailability in rat at 3 mg/kg, iv and 5 to 10 mg/kg, po; assay type: ADME, organism-based; conditions: in vivo
Mus musculus [3] = test: Decrease in body weight of AKR/J DIO mouse relative to control after 15 days at 3 mg/kg, po; assay type: functional; set-up: scale not given: the % may be the effect or the level left
Mus musculus [4] = test: Decrease in body weight of AKR/J DIO mouse relative to control after 15 days at 1 mg/kg, po; assay type: functional; set-up: scale not given: the % may be the effect or the level left
[5] = Bioavailability in mouse at 1.6 mg/kg, iv and 5.2 mg/kg, po; assay type: ADME, organism-based; conditions: in vivo
[6] = Ratio of drug level in brain against plasma in mouse; assay type: ADME, organism-based; conditions: brain and plasma, read-out: BPR
Mus musculus [7] = test: Decrease in body weight of AKR/J DIO mouse relative to control after 15 days at 10 mg/kg, po; assay type: functional; set-up: scale not given: the % may be the effect or the level left
Mus musculus [8] = test: Decrease in body weight of AKR/J DIO mouse relative to control after 15 days at 0.3 mg/kg, po; assay type: functional; set-up: scale not given: the % may be the effect or the level left
[9] = Half life in mouse; assay type: ADME, organism-based; conditions: in vivo

Chain of Melanin-concentrating hormone receptor 1 (Q99705 whole entry): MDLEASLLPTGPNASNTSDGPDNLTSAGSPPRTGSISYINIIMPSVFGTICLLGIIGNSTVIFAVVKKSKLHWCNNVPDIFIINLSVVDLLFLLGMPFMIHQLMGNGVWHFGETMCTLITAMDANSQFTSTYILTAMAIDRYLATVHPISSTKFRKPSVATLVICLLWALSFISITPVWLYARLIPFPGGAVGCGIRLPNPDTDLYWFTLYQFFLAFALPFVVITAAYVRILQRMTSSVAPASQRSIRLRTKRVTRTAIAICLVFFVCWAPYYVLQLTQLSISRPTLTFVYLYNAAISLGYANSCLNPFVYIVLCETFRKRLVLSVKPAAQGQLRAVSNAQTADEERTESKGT

Row | SMILES | IC50 [1] | bioavailability [2] | further results
1 | COc1ccc(Cn2c(N(C)C)nc3cc(-n4cnc5cc(-c6ccc(Cl)cc6)sc5c4=O)ccc32)cc1 | 12.6 nM |  | 
2 | CNc1nc2cc(-n3cnc4cc(-c5ccc(Cl)cc5)sc4c3=O)ccc2[nH]1 | 3.98 nM | 0% | 
3 | CC(C)Nc1nc2cc(-n3cnc4cc(-c5ccc(Cl)cc5)sc4c3=O)ccc2[nH]1 | 7.94 nM |  | 
4 | CCOc1ccc(-n2c(C)nc3cc(-n4cnc5cc(-c6ccc(Cl)cc6)sc5c4=O)ccc32)cc1 | 3.16 nM |  | 
5 | Cn1c(N2CCCC2)nc2ccc(-n3cnc4cc(-c5ccc(Cl)cc5)sc4c3=O)cc21 | 6.31 nM | ≥ 100% | 
6 | Cc1nc2cc(-n3cnc4cc(-c5ccc(Cl)cc5)sc4c3=O)ccc2n1-c1ccc(N(C)C)cc1 | 5.01 nM |  | 
7 | COc1ccc(-n2c(C)nc3cc(-n4cnc5cc(-c6ccc(Cl)cc6)sc5c4=O)ccc32)cc1 | 5.01 nM | 3% | 
8 | COCCCn1c(C)nc2cc(-n3cnc4cc(-c5ccc(Cl)cc5)sc4c3=O)ccc21 | 5.01 nM | 40% | 
9 | Cc1nc2cc(-n3cnc4cc(-c5ccc(Cl)cc5)sc4c3=O)ccc2n1-c1ccc(OC(C)C)cc1 | 7.94 nM |  | 
10 | CN(C)c1nc2ccc(-n3cnc4cc(-c5ccc(Cl)cc5)sc4c3=O)cc2n1C | 1.58 nM | ≥ 100% | Activity (Mus musculus [3]): -5.1%; Activity (Mus musculus [4]): -2.1%; bioavailability [5]: > 90%; Kp [6]: 2.6; Activity (Mus musculus [7]): -10%; Activity (Mus musculus [8]): -1.6%; half-life [9]: 6 h
11 | O=c1c2sc(-c3ccc(Cl)cc3)cc2ncn1-c1ccc2[nH]c(NC3CC3)nc2c1 | 15.8 nM |  | 
12 | CN(C)c1nc2cc(-n3cnc4cc(-c5ccc(Cl)cc5)sc4c3=O)ccc2n1CCO | 10 nM | 59% | 
13 | CN1CCN(c2nc3cc(-n4cnc5cc(-c6ccc(Cl)cc6)sc5c4=O)ccc3[nH]2)CC1 | 100 nM |  | 
14 | CN(C)c1nc2ccc(-n3cnc4cc(-c5ccc(Cl)cc5)sc4c3=O)cc2n1CCO | 12.6 nM | 55% | 
15 | CCCn1c(N(C)C)nc2ccc(-n3cnc4cc(-c5ccc(Cl)cc5)sc4c3=O)cc21 | 5.01 nM | 21% | 
16 | Cc1nc2cc(-n3cnc4cc(-c5ccc(Cl)cc5)sc4c3=O)ccc2n1CCN1CCCC1 | 2 nM | 31% | 
17 | O=c1c2sc(-c3ccc(Cl)cc3)cc2ncn1-c1ccc2[nH]c(NCCN3CCCC3)nc2c1 | 6.31 nM | 0% | 
18 | CCCn1c(N(C)C)nc2cc(-n3cnc4cc(-c5ccc(Cl)cc5)sc4c3=O)ccc21 | 5.01 nM | 30% | 
19 | Cc1nc2cc(-n3cnc4cc(-c5ccc(Cl)cc5)sc4c3=O)ccc2[nH]1 | 25.1 nM |  | 
20 | Cc1nc2cc(-n3cnc4cc(-c5ccc(Cl)cc5)sc4c3=O)ccc2n1-c1ccccc1 | 31.6 nM |  | 
21 | O=c1c2sc(-c3ccc(Cl)cc3)cc2ncn1-c1ccc2[nH]c(N3CCCCC3)nc2c1 | 5.01 nM | 31% | 

Continued, in another order:

Row | IC50 [1] | bioavailability [2] | SMILES | further results
22 | 10 nM | 16% | COc1ccc(-n2c(N(C)C)nc3cc(-n4cnc5cc(-c6ccc(Cl)cc6)sc5c4=O)ccc32)cc1 | 
23 | 1.58 nM | ≥ 100% | Cc1nc2cc(-n3cnc4cc(-c5ccc(Cl)cc5)sc4c3=O)ccc2n1CCCO | 
24 | 31.6 nM |  | COCCNc1nc2cc(-n3cnc4cc(-c5ccc(Cl)cc5)sc4c3=O)ccc2[nH]1 | 
25 | 2.51 nM | 4% | CN(C)c1nc2cc(-n3cnc4cc(-c5ccc(Cl)cc5)sc4c3=O)ccc2[nH]1 | 
26 | 20 nM |  | Cc1ccc(-n2c(C)nc3cc(-n4cnc5cc(-c6ccc(Cl)cc6)sc5c4=O)ccc32)cc1 | 
27 | 6.31 nM | 0% | Cc1nc2cc(-n3cnc4cc(-c5ccc(Cl)cc5)sc4c3=O)ccc2n1C1CCCCC1 | 
28 | 3.16 nM | 76% | O=c1c2sc(-c3ccc(Cl)cc3)cc2ncn1-c1ccc2[nH]c(N3CCCC3)nc2c1 | 
29 | 5.01 nM | 0% | CN(CCN1CCCC1)c1nc2cc(-n3cnc4cc(-c5ccc(Cl)cc5)sc4c3=O)ccc2[nH]1 | 
30 | 6.31 nM | 24% | Cc1nc2cc(-n3cnc4cc(-c5ccc(Cl)cc5)sc4c3=O)ccc2n1CCN1CCOCC1 | 
31 | 6.31 nM |  | CN(C)c1nc2cc(-n3cnc4cc(-c5ccc(Cl)cc5)sc4c3=O)ccc2n1C | 
32 | 25.1 nM |  | Cn1c(N2CCCC2)nc2cc(-n3cnc4cc(-c5ccc(Cl)cc5)sc4c3=O)ccc21 | 
33 | 2510 nM |  | COc1ccc(Cn2c(N(C)C)nc3ccc(-n4cnc5cc(-c6ccc(Cl)cc6)sc5c4=O)cc32)cc1 | 
34 | 15.8 nM |  | O=c1c2sc(-c3ccc(Cl)cc3)cc2ncn1-c1ccc2[nH]c(N3CCOCC3)nc2c1 | 
35 | 31.6 nM |  | Nc1nc2cc(-n3cnc4cc(-c5ccc(Cl)cc5)sc4c3=O)ccc2[nH]1 | 
